This is an account of results in patent publication US8846933B2, “N-link hydroxamic acid derivatives useful as antibacterial agents” (Pfizer Inc., priority 2009, dated 2014).

Experiment [1] concerns Pseudomonas aeruginosa UI-18: Wild-type (PA-7). The experiment can be described thus: MIC determination (CLSI), strain PA-7. It is filed as cell-based. The conditions noted are these: strain PA-7; generated in the same manner as in Table 4; unit assumed. The procedure:
(§1) The in vitro antibacterial activity of compounds described in the Examples was evaluated by minimum inhibitory concentration (MIC) testing according to Clinical and Laboratory Standards Institute (CLSI, formerly NCCLS) guidelines. See: Clinical and Laboratory Standards Institute. Methods for Dilution Antimicrobial Susceptibility Tests for Bacteria that Grow Aerobically; Approved Standard-Seventh Edition. CLSI document M7-A7 [ISBN 1-56238-587-9]. Clinical and Laboratory Standards Institute, 940 West Valley Road, Suite 1400, Wayne, Pa. 19087-1898 USA, 2006; also Clinical and Laboratory Standards Institute. Performance Standards for Antimicrobial Susceptibility Testing; Eighteenth Informational Supplement. CLSI document M100-S18 [ISBN1-56238-653-0].Clinical and Laboratory Standards Institute.
(§2) The following bacterial strains were used in these MIC determinations:
1) Pseudomonas aeruginosa UI-18: Wild-type, labeled as PA-7 in Tables 4, and 5;

Experiment [2] relates to Escherichia coli EC-1: VOGEL, mouse virulent. Nature of the experiment: MIC determination (CLSI), strain EC-1. It is filed as cell-based. The conditions noted are these: strain EC-1; generated in the same manner as in Table 4; unit assumed. As to the method: as §1, §2
3) Escherichia coli EC-1: VOGEL, mouse virulent labeled as EC-1 in Tables 4 and 5;

In the case of `COc1ccccc1-c1ccn(CCC(C)(C(=O)NO)S(C)(=O)=O)c(=O)c1` (stereo not drawn) [Example 120, N-hydroxy-4-[4-(2-methoxyphenyl)-2-oxopyridin-1(2H)-yl]-2-methyl-2-(methylsulfonyl)butanamide], the PA-7 (MIC) in experiment [1] turned out to be 16 mg/L. Also, the EC-1 (MIC) in experiment [2] turned out to be 64 mg/L.

In experiment [1], `CC(CCn1ccc(-c2cc(F)cc(Cl)c2)cc1=O)(C(=O)NO)S(C)(=O)=O` (stereo not drawn) [Example 121, 4-[4-(3-chloro-5-fluorophenyl)-2-oxopyridin-1(2H)-yl]-N-hydroxy-2-methyl-2-(methylsulfonyl)butanamide] registered a PA-7 (MIC) of 16 mg/L. In experiment [2], this compound showed an EC-1 (MIC) of 8 mg/L.

As for `Cc1cc(F)ccc1-c1ccn(CCC(C)(C(=O)NO)S(C)(=O)=O)c(=O)c1` (stereo not drawn) [Example 122, 4-[4-(4-fluoro-2-methylphenyl)-2-oxopyridin-1(2H)-yl]-N-hydroxy-2-methyl-2-(methylsulfonyl)butanamide], in experiment [1], the PA-7 (MIC) was 8 mg/L. The compound further registered an EC-1 (MIC) in experiment [2] of 16 mg/L.

Regarding `COc1ccc(-c2ccn(CCC(C)(C(=O)NO)S(C)(=O)=O)c(=O)c2)c(F)c1F` (stereo not drawn) [Example 123, 4-[4-(2,3-difluoro-4-methoxyphenyl)-2-oxopyridin-1(2H)-yl]-N-hydroxy-2-methyl-2-(methylsulfonyl)butanamide], the PA-7 (MIC) in experiment [1] came to 2 mg/L. Also, in experiment [2], the EC-1 (MIC) was 2 mg/L.

For the compound `CC(CCn1ccc(-c2cnc3ccccc3c2)cc1=O)(C(=O)NO)S(C)(=O)=O` (stereo not drawn) [Example 124, N-hydroxy-2-methyl-2-(methylsulfonyl)-4-(2-oxo-4-quinolin-3-ylpyridin-1(2H)-yl)butanamide], the PA-7 (MIC) in experiment [1] is 16 mg/L. Also, the EC-1 (MIC) in experiment [2] was 16 mg/L.

In experiment [1], `CC(CCn1ccc(-c2cnc3ccccc3c2)cc1=O)(C(=O)NO)S(C)(=O)=O` (stereo not drawn) [Example 125, N-hydroxy-2-methyl-2-(methylsulfonyl)-4-(2-oxo-4-quinolin-3-ylpyridin-1(2H)-yl)butanamide] showed a PA-7 (MIC) of 32 mg/L. The EC-1 (MIC) in experiment [2] worked out at 16 mg/L.

`CCN(CC)C(=O)c1ccc(-c2ccn(CCC(C)(C(=O)NO)S(C)(=O)=O)c(=O)c2)cc1` (stereo not drawn) [Example 126, N,N-diethyl-4-{1-[4-(hydroxyamino)-3-methyl-3-(methylsulfonyl)-4-oxobutyl]-2-oxo-1,2-dihydropyridin-4-yl}benzamide] gave a PA-7 (MIC) in experiment [1] greater than 64 mg/L. Also, the EC-1 (MIC) in experiment [2] is greater than 64 mg/L.

On to `CC(=O)c1cccc(-c2ccn(CCC(C)(C(=O)NO)S(C)(=O)=O)c(=O)c2)c1` (stereo not drawn) [Example 127, 4-[4-(3-acetylphenyl)-2-oxopyridin-1(2H)-yl]-N-hydroxy-2-methyl-2-(methylsulfonyl)butanamide], for which the PA-7 (MIC) in experiment [1] is 32 mg/L. The EC-1 (MIC) in experiment [2] is 16 mg/L.

In experiment [1], `CC(CCn1ccc(-c2cc3nccc(Cl)c3s2)cc1=O)(C(=O)NO)S(C)(=O)=O` (stereo not drawn) [Example 128, 4-[4-(7-chlorothieno[3,2-b]pyridin-2-yl)-2-oxopyridin-1(2H)-yl]-N-hydroxy-2-methyl-2-(methylsulfonyl)butanamide] displayed a PA-7 (MIC) of 64 mg/L. This compound also gave an EC-1 (MIC) in experiment [2] of 32 mg/L.

In the case of `CC(CCn1ccc(-c2ccc(CC#N)cc2)cc1=O)(C(=O)NO)S(C)(=O)=O` (stereo not drawn) [Example 129, 4-{4-[4-(cyanomethyl)phenyl]-2-oxopyridin-1(2H)-yl}-N-hydroxy-2-methyl-2-(methylsulfonyl)butanamide], the PA-7 (MIC) in experiment [1] came to 32 mg/L. In addition, in experiment [2], the EC-1 (MIC) was 2 mg/L.

In experiment [1], `CC(CCn1ccc(-c2cc(F)c(F)c(F)c2)cc1=O)(C(=O)NO)S(C)(=O)=O` (stereo not drawn) [Example 130, N-hydroxy-2-methyl-2-(methylsulfonyl)-4-[2-oxo-4-(3,4,5-trifluorophenyl)pyridin-1(2H)-yl]butanamide] displayed a PA-7 (MIC) of 8 mg/L. Also, the EC-1 (MIC) in experiment [2] was determined as 16 mg/L.

Compound `CC(CCn1ccc(-c2ccccc2OCC(F)(F)F)cc1=O)(C(=O)NO)S(C)(=O)=O` (stereo not drawn) [Example 131, N-hydroxy-2-methyl-2-(methylsulfonyl)-4-{2-oxo-4-[2-(2,2,2-trifluoroethoxy)phenyl]pyridin-1(2H)-yl}butanamide] had a PA-7 (MIC) in experiment [1] greater than 64 mg/L. For the same compound, the EC-1 (MIC) in experiment [2] is greater than 64 mg/L.

Consider `CC(CCn1ccc(-c2ccccc2C#N)cc1=O)(C(=O)NO)S(C)(=O)=O` (stereo not drawn) [Example 132, 4-[4-(2-cyanophenyl)-2-oxopyridin-1(2H)-yl]-N-hydroxy-2-methyl-2-(methylsulfonyl)butanamide], for which, in experiment [1], the PA-7 (MIC) is greater than 64 mg/L. The compound also had an EC-1 (MIC) in experiment [2] greater than 64 mg/L.

In the case of `CC(=O)Nc1cccc(-c2ccn(CCC(C)(C(=O)NO)S(C)(=O)=O)c(=O)c2)c1` (stereo not drawn) [Example 133, 4-[4-(3-acetamidophenyl)-2-oxopyridin-1(2H)-yl]-N-hydroxy-2-methyl-2-(methylsulfonyl)butanamide], the PA-7 (MIC) in experiment [1] was greater than 64 mg/L. Further, the EC-1 (MIC) in experiment [2] is greater than 64 mg/L.

Consider `CC(CCn1ccc(-c2ccc(F)c(F)c2)cc1=O)(C(=O)NO)S(C)(=O)=O` (stereo not drawn) [Example 134, 4-[4-(3,4-difluorophenyl)-2-oxopyridin-1(2H)-yl]-N-hydroxy-2-methyl-2-(methylsulfonyl)butanamide], for which the PA-7 (MIC) in experiment [1] came to 4 mg/L. The compound also yielded an EC-1 (MIC) in experiment [2] of 4 mg/L.

In experiment [1], `CC(CCn1ccc(-c2ccc(Cl)c(C#N)c2)cc1=O)(C(=O)NO)S(C)(=O)=O` (stereo not drawn) [Example 135, 4-[4-(4-chloro-3-cyanophenyl)-2-oxopyridin-1(2H)-yl]-N-hydroxy-2-methyl-2-(methylsulfonyl)butanamide] yielded a PA-7 (MIC) of 16 mg/L. In experiment [2], this compound came in with an EC-1 (MIC) of 16 mg/L.

In the case of `CCS(=O)(=O)c1ccc(-c2ccn(CCC(C)(C(=O)NO)S(C)(=O)=O)c(=O)c2)cc1` (stereo not drawn) [Example 136, 4-{4-[4-(ethylsulfonyl)phenyl]-2-oxopyridin-1(2H)-yl}-N-hydroxy-2-methyl-2-(methylsulfonyl)butanamide], in experiment [1], the PA-7 (MIC) amounted to 64 mg/L. Besides, the EC-1 (MIC) in experiment [2] was greater than 64 mg/L.

`CC(CCn1ccc(-c2cc(F)ccc2OC(F)(F)F)cc1=O)(C(=O)NO)S(C)(=O)=O` (stereo not drawn) [Example 137, 4-{4-[5-fluoro-2-(trifluoromethoxy)phenyl]-2-oxopyridin-1(2H)-yl}-N-hydroxy-2-methyl-2-(methylsulfonyl)butanamide] yielded a PA-7 (MIC) in experiment [1] greater than 64 mg/L. For the same compound, the EC-1 (MIC) in experiment [2] was greater than 64 mg/L.

In experiment [1], `COc1ccc(-c2ccn(CCC(C)(C(=O)NO)S(C)(=O)=O)c(=O)c2)cc1OC` (stereo not drawn) [Example 138, 4-[4-(3,4-dimethoxyphenyl)-2-oxopyridin-1(2H)-yl]-N-hydroxy-2-methyl-2-(methylsulfonyl)butanamide] gave a PA-7 (MIC) of 64 mg/L. The same compound showed an EC-1 (MIC) in experiment [2] of 64 mg/L.

With `COc1ccc(Oc2ccc(-c3ccn(CCC(C)(C(=O)NO)S(C)(=O)=O)c(=O)c3)cc2)cc1` (stereo not drawn) [Example 139, N-hydroxy-4-{4-[4-(4-methoxyphenoxy)phenyl]-2-oxopyridin-1(2H)-yl}-2-methyl-2-(methylsulfonyl)butanamide], the PA-7 (MIC) in experiment [1] was 8 mg/L. This compound returned an EC-1 (MIC) in experiment [2] of 0.125 mg/L.

Consider `CC(=O)c1ccccc1-c1ccn(CCC(C)(C(=O)NO)S(C)(=O)=O)c(=O)c1` (stereo not drawn) [Example 140, 4-[4-(2-acetylphenyl)-2-oxopyridin-1(2H)-yl]-N-hydroxy-2-methyl-2-(methylsulfonyl)butanamide], for which the PA-7 (MIC) in experiment [1] was greater than 64 mg/L. The compound also registered an EC-1 (MIC) in experiment [2] greater than 64 mg/L.

Compound `CC(CCn1ccc(-c2ccc(Cl)cc2)cc1=O)(C(=O)NO)S(C)(=O)=O` (stereo not drawn) [Example 141, 4-[4-(4-chlorophenyl)-2-oxopyridin-1(2H)-yl]-N-hydroxy-2-methyl-2-(methylsulfonyl)butanamide] yielded a PA-7 (MIC) in experiment [1] of 1 mg/L. In addition, in experiment [2], the EC-1 (MIC) is 1 mg/L.

Take `CC(CCn1ccc(-c2ccc(Cl)c(F)c2)cc1=O)(C(=O)NO)S(C)(=O)=O` (stereo not drawn) [Example 142, 4-[4-(4-chloro-3-fluorophenyl)-2-oxopyridin-1(2H)-yl]-N-hydroxy-2-methyl-2-(methylsulfonyl)butanamide]: in experiment [1], the PA-7 (MIC) worked out at 1 mg/L. In experiment [2], this compound returned an EC-1 (MIC) of 1 mg/L.

As for `CC(CCn1ccc(-c2cccc(C(F)(F)F)c2)cc1=O)(C(=O)NO)S(C)(=O)=O` (stereo not drawn) [Example 143, N-hydroxy-2-methyl-2-(methylsulfonyl)-4-{2-oxo-4-[3-(trifluoromethyl)phenyl]pyridin-1(2H)-yl}butanamide], the PA-7 (MIC) in experiment [1] was 8 mg/L. The EC-1 (MIC) in experiment [2] was 4 mg/L.

`CC(CCn1ccc(-c2cccc(CO)c2)cc1=O)(C(=O)NO)S(C)(=O)=O` (stereo not drawn) [Example 144, N-hydroxy-4-{4-[3-(hydroxymethyl)phenyl]-2-oxopyridin-1(2H)-yl}-2-methyl-2-(methylsulfonyl)butanamide] gave a PA-7 (MIC) in experiment [1] greater than 64 mg/L. In experiment [2], this compound had an EC-1 (MIC) greater than 64 mg/L.

For the compound `CC(CCn1ccc(-c2ccc(OC(F)(F)F)cc2)cc1=O)(C(=O)NO)S(C)(=O)=O` (stereo not drawn) [Example 145, N-hydroxy-2-methyl-2-(methylsulfonyl)-4-{2-oxo-4-[4-(trifluoromethoxy)phenyl]pyridin-1(2H)-yl}butanamide], the PA-7 (MIC) in experiment [1] was determined as 2 mg/L. Also, the EC-1 (MIC) in experiment [2] amounted to 1 mg/L.

In experiment [1], `CC(C)NC(=O)c1ccc(-c2ccn(CCC(C)(C(=O)NO)S(C)(=O)=O)c(=O)c2)cc1` (stereo not drawn) [Example 146, 4-{1-[4-(hydroxyamino)-3-methyl-3-(methylsulfonyl)-4-oxobutyl]-2-oxo-1,2-dihydropyridin-4-yl}-N-isopropylbenzamide] showed a PA-7 (MIC) greater than 64 mg/L. The compound also registered an EC-1 (MIC) in experiment [2] greater than 64 mg/L.
